“And” between values parts separate entries of the source, which are not always exact repeats. Equal values may be shown once. Where a name gives a salt, the structure may show the parent alone. Read-outs that look alike come from different tables or passages of the source.
Assays:
HIV-1 (strain LAV-1) = assay: Inhibition of HIV replication in PBM cells (supernatant RT activity); assay type: cell-based
[1] = molecular target: HIV-1 reverse transcriptase (Human immunodeficiency virus type 1 group M subtype B, UniProt P04585); assay: Inhibition of purified HIV-1 reverse transcriptase (cell free); assay type: biochemical
Experimental: Methodology for Testing Antiviral Drugs for Inhibition of HIV-1 Reverse Transcriptase
Cells and viruses are cultured as described above. […] 12,431-439 (1973). Cocktail, template, compound to be tested and reverse transcriptase are mixed together on ice, then incubated for one hour at 37° C.. The DNA synthesized is acid precipitated and the radioactivity measured, as described by Eriksson, B., et al., Antimicrobial Agents and Chemotherapy 31, 600-604 ([…]).

[2] = system: herpes simplex virus type 1; assay: Plaque assay in Vero cells, HSV type 1; assay type: cell-based, HSV-1
Experimental: (§1) Methodology for Testing Antiviral Drugs for Inhibition of Replication of HSV-1 and HSV-2
(§2) Compounds are tested for inhibition of herpes simplex virus type 1 and herpes simplex virus type 2 using the method of Schinazi, et al., Antimicrobial Agents and Chemotherapy 22, 499-507 (1982). This is a plaque assay using Vero cells (African green monkey cells) infected with HSV.

[3] = system: herpes simplex virus type 2; assay: Plaque assay in Vero cells, HSV type 2; assay type: cell-based, HSV-2
Experimental: as §1, §2

herpes simplex viruses = details: upon exposure to light; concentrations as low as; cited from earlier work
influenza A = details: upon exposure to light; concentrations as low as; cited from earlier work
[4] = system: reverse transcriptase of Rauscher murine leukemia virus; details: cited from earlier work
[5] = system: reverse transcriptase of avian myeloblastosis virus; details: 10^-4 M; cited from earlier work
[6] = human PBM cells, RT activity in supernatant five days after infection, read-out: EC50, inhibition of HIV replication in PBM cells
[7] = Human immunodeficiency virus 1, PBMC, 120 h, human PBM cells, RT activity in supernatant five days after infection, read-out: EC50, inhibition of HIV replication in PBM cells
[8] = read-out: EC50, inhibition of HIV reverse transcriptase, purified enzyme, one hour at 37° C.
[9] = Human alphaherpesvirus 1, Dark, Vero cells plaque assay, read-out: EC50 HSV type 1 Dark
[10] = Human alphaherpesvirus 1, Light, Vero cells plaque assay, read-out: EC50 HSV type 1 Light
[11] = Human alphaherpesvirus 2, Dark, Vero cells plaque assay, read-out: EC50 HSV type 2 Dark
[12] = Human alphaherpesvirus 2, Light, Vero cells plaque assay, read-out: EC50 HSV type 2 Light
[13] = purified enzyme, one hour at 37° C., read-out: EC50, inhibition of HIV reverse transcriptase
[14] = Human immunodeficiency virus 1, PBMC, 120 h, read-out: EC50, inhibition of HIV replication in PBM cells, human PBM cells, RT activity in supernatant five days after infection

With “Fe(III)-mu-oxo-dimer of tetraphenyl-porphyrin [μ-oxo-TPP]” the EC50 (HIV-1 (strain LAV-1); [6]) was > 100 µM.

`[Cu+2].c1ccc2c(c1)-c1nc-2nc2[n-]c(nc3nc(nc4[n-]c(n1)c1ccccc41)-c1ccccc1-3)c1ccccc21` [CuPHTH, Copper phthalocyanine] gave an EC50 (HIV-1 (strain LAV-1); [6]) of 46.9 µM.

For `C[n+]1cccc(-c2c3nc(c(-c4ccccc4)c4ccc([nH]4)c(-c4ccc[n+](C)c4)c4nc(c(-c5ccccc5)c5ccc2[nH]5)C=C4)C=C3)c1` [TP-4, 5,15-Diphenyl-10,20-di(N-methyl-3-pyridyl)-porphyrin Cl-], the EC50 (HIV-1 (strain LAV-1); [7]) was < 1 µM, the EC50 (HIV-1 (strain LAV-1); [6]) was 0.76 µM and the EC50 [1, 8] was 6.9 µM.

With “Copper phthalocyanine 3,4'4'',4'''-tetrasulfonic acid [(CuPHTHS4)(3,4,4,4)]” the EC50 (HIV-1 (strain LAV-1); [6]) was ≤ 1 µM.

In the case of `C[n+]1ccc(-c2c3nc(c(-c4ccccc4)c4ccc([nH]4)c(-c4ccccc4)c4nc(c(-c5cc[n+](C)cc5)c5ccc2[nH]5)C=C4)C=C3)cc1` [CP-4, 5,10-Diphenyl-15,20-di(N-methyl-4-pyridyl)-porphyrin Cl-], the “Difference in inhibition of HIV, dark versus light” value (HIV-1 (strain LAV-1)) is reported as “No significant differences in activity”, the EC50 (HIV-1 (strain LAV-1); Human immunodeficiency virus 1, PBMC, 120 h, read-out: EC50, inhibition of HIV replication in PBM cells) is reported as 0.38 µM and the EC50 (HIV-1 (strain LAV-1); Human immunodeficiency virus 1, PBMC, read-out: EC50, inhibition of HIV replication in PBM cells) is reported as 0.43 µM. It also gave an EC50 [1] of 26.9 µM.

In the case of `C=CC1=C(C)c2cc3[nH]c(cc4nc(cc5[nH]c(cc1n2)c(C)c5C=C)C(C)=C4CCC(=O)OC)c(CCC(=O)OC)c3C` [PPIXDME, Protoporphyrin IX dimethyl ester], the EC50 [1] is reported as > 100 µM, the EC50 [2, 9] is reported as > 10 µM and the EC50 [2, 10] is reported as 10 µM. For the same molecule, the EC50 [3, 11] was > 10 µM and the EC50 [3, 12] was > 10 µM.

In the case of `CC1=C(CCC(=O)O)c2cc3[nH]c(cc4nc(cc5[nH]c(cc1n2)c(C)c5C(C)O)C(C)=C4C(C)O)c(C)c3CCC(=O)O` (stereo not drawn) [hematoporphyrin], the “Concentration inhibiting in vitro replication of herpes simplex viruses” value (herpes simplex viruses) is given as 0.5 µg/mL and the “Concentration inhibiting in vitro replication of influenza A” value (influenza A) is given as 0.5 µg/mL.

With Reactive Blue 15 the EC50 (HIV-1 (strain LAV-1); [6]) was ≤ 1 µM.

For “Nickel phthalocyanine tetrasulfonic acid [NiPHTHS4]”, the EC50 (HIV-1 (strain LAV-1); [6]) was 1.06 µM.

With `C=CC1=C(C)c2cc3[nH]c(cc4nc(cc5[nH]c(cc1n2)c(C)c5CCC(=O)O)C(CCC(=O)O)=C4C)c(C)c3C=C` [PPIX, Protoporphyrin, disodium salt] the EC50 [1] was > 100 µM, the EC50 [2, 10] was < 0.01 µM and the EC50 [3, 11] was 10 µM. It also gave an EC50 [3, 12] of 0.05 µM.

With `C[n+]1ccc(-c2c3nc(c(-c4ccccc4)c4ccc([nH]4)c(-c4cc[n+](C)cc4)c4nc(c(-c5ccccc5)c5ccc2[nH]5)C=C4)C=C3)cc1` [TP-3, 5,15-Diphenyl-10,20-di(N-methyl-4-pyridyl)-porphyrin Cl-] the EC50 [1, 8] was 7.3 µM.

For “Fe(III)-tetra-(4-methylphenyl)-porphyrin chloride [(FeTPP)(4-Cl)4]”, the EC50 (HIV-1 (strain LAV-1); [6]) was > 100 µM.

`C[n+]1cccc(-c2c3nc(c(-c4ccccc4)c4ccc([nH]4)c(-c4ccccc4)c4nc(c(-c5ccc[n+](C)c5)c5ccc2[nH]5)C=C4)C=C3)c1` [CP-3, 5,10-Diphenyl-15,20-di(N-methyl-3-pyridyl)-porphyrin Cl-] showed an EC50 (HIV-1 (strain LAV-1); [7]) of 2.28 µM and an EC50 [1] of 41.6 µM.

For `Cc1cccc(-c2c3nc(c(-c4cccc(C)c4)c4ccc([nH]4)c(-c4cccc(C)c4)c4nc(c(-c5cccc(C)c5)c5ccc2[nH]5)C=C4)C=C3)c1` [TPP(3-Me)4, Tetra-(3-methylphenyl)-porphyrin], the EC50 [2, 9] was > 10 µM, the EC50 [2, 10] was > 10 µM and the EC50 [3, 12] was > 10 µM.

For `[Co+2].c1ccc2c(c1)-c1nc-2nc2[n-]c(nc3nc(nc4[n-]c(n1)c1ccccc41)-c1ccccc1-3)c1ccccc21` [CoPHTH, Cobalt phthalocyanine], the EC50 (HIV-1 (strain LAV-1); [6]) was 100 µM.

For `C[n+]1ccc(-c2c3nc(c(-c4cc[n+](C)cc4)c4ccc([nH]4)c(-c4cc[n+](C)cc4)c4nc(c(-c5cc[n+](C)cc5)c5ccc2[nH]5)C=C4)C=C3)cc1` [TMPyP, Tetra-(N-methyl-4-pyridyl)-porphyrin tosylate salt], the EC50 ([2]; Human alphaherpesvirus 1, Vero, read-out: EC50 HSV type 1 Dark) was 0.04 µM, the EC50 ([2]; Human alphaherpesvirus 1, Vero, read-out: EC50 HSV type 1 Light) was 0.03 µM and the EC50 ([3]; Human alphaherpesvirus 2, Vero, read-out: EC50 HSV type 2 Dark) was > 10 µM. For the same molecule, the EC50 ([3]; Human alphaherpesvirus 2, Vero, read-out: EC50 HSV type 2 Light) was > 1 µM.

Work on “Copper-4,4',4'',4'''-tetra-aza-29H, 31H-phthalocyanine [CuPHTHN4]” yielded an EC50 (HIV-1 (strain LAV-1); [6]) of 100 µM.

With `[Cl][Fe]1[n]2c3ccc2C(c2ccccc2)=C2C=CC(=N2)C(c2ccccc2)=c2ccc([n]21)=C(c1ccccc1)C1=NC(=C3c2ccccc2)C=C1` [FeTPPCl, Fe(III)-tetraphenylporphyrin chloride] the EC50 (HIV-1 (strain LAV-1); [6]) was ~100 µM.

For `C[n+]1ccc(-c2c3nc(c(-c4cc[n+](C)cc4)c4ccc([nH]4)c(-c4cc[n+](C)cc4)c4nc(c(-c5cc[n+](C)cc5)c5ccc2[nH]5)C=C4)C=C3)cc1.Cl.[Fe+3]` [FeTMPyP, Fe(III)-tetra-(N-methyl-4-pyridyl)-porphyrin chloride], the EC50 (HIV-1 (strain LAV-1); [6]) was 78.1 µM.

In the case of `C[n+]1ccc(-c2c3nc(c(-c4ccccc4)c4ccc([nH]4)c(-c4ccccc4)c4nc(c(-c5cc[n+](C)cc5)c5ccc2[nH]5)C=C4)C=C3)cc1.[Ni+2]` [Ni-CP4, Ni(II)-5,10-diphenyl-15,20-di(N-methyl-4-pyridyl)-porphyrin], the EC50 (HIV-1 (strain LAV-1); [6]) is reported as 3.44 µM and 6.54 µM and the EC50 [1, 13] is reported as 24.8 µM.

For “Copper phthalocyanine tetrasulfonic acid tetra-sodium salt [CuPHTHS4]”, the EC50 (HIV-1 (strain LAV-1); [6]) was 22.4 µM.

`O=C(O)c1ccc(-c2c3nc(c(-c4ccc(C(=O)O)cc4)c4ccc([nH]4)c(-c4ccc(C(=O)O)cc4)c4nc(c(-c5ccc(C(=O)O)cc5)c5ccc2[nH]5)C=C4)C=C3)cc1` [TPP(4-CO2 H)4, Tetra-(4-carboxyphenyl)-porphyrin] gave an EC50 [1] of 1.1 µM, an EC50 [2, 9] of 2.5 µM and an EC50 [2, 10] of 10 µM. For the same molecule, the EC50 [3, 11] was > 10 µM and the EC50 [3, 12] was > 10 µM.

With `C1=Cc2nc1c(-c1ccccc1)c1ccc([nH]1)c(-c1ccccc1)c1nc(c(-c3ccccc3)c3ccc([nH]3)c2-c2ccccc2)C=C1` [TPP, Meso-tetraphenylporphine] the EC50 (HIV-1 (strain LAV-1); [14]) was 13.7 µM, the EC50 (HIV-1 (strain LAV-1); read-out: EC50, inhibition of HIV replication in PBM cells, human PBM cells, RT activity in supernatant five days after infection) was > 10 µM and the EC50 [1] was > 100 µM. The EC50 [2, 9] was > 10 µM, the EC50 [2, 10] was 10 µM and the EC50 [3, 11] was > 10 µM. For the same molecule, the EC50 [3, 12] was > 10 µM.

In the case of `C[n+]1ccc(-c2c3nc(c(-c4cc[n+](C)cc4)c4ccc([nH]4)c(-c4ccccc4)c4nc(c(-c5ccccc5)c5ccc2[nH]5)C=C4)C=C3)cc1.[Cu+2]` [Cu-CP4, Cu(II)-5,10-diphenyl-15,20-di(N-methyl-4-pyridyl)-porphyrin], the EC50 (HIV-1 (strain LAV-1); [6]) is reported as 4.76 µM and 5.78 µM and the EC50 [1, 13] is reported as 57.4 µM.

In the case of “Hemin, bovine, (chloro protoporphyrin IX Fe(III)) [FePPIXCl]”, the EC50 (HIV-1 (strain LAV-1); [6]) is given as 49.3 µM, the “Concentration inhibiting reverse transcriptase activity” value [4] is given as 10^-4 M and the EC50 [1, 13] is given as 20.5 µM. For the same molecule, the “Inhibition of reverse transcriptase activity (in words)” value [5] was “not”.

With `Oc1ccc(-c2c3nc(c(-c4ccc(O)cc4)c4ccc([nH]4)c(-c4ccc(O)cc4)c4nc(c(-c5ccc(O)cc5)c5ccc2[nH]5)C=C4)C=C3)cc1` [TPP(4-OH)4, Tetra-(4-hydroxyphenyl)-porphyrin] the EC50 (HIV-1 (strain LAV-1); [7]) was 0.6 µM, the EC50 (HIV-1 (strain LAV-1); [6]) was 0.7 µM and the EC50 [2, 9] was > 10 µM. For the same molecule, the EC50 [2, 10] was > 10 µM, the EC50 [3, 11] was > 10 µM and the EC50 [3, 12] was > 10 µM.

`Clc1ccc(-c2c3nc(c(-c4ccc(Cl)cc4)c4ccc([nH]4)c(-c4ccc(Cl)cc4)c4nc(c(-c5ccc(Cl)cc5)c5ccc2[nH]5)C=C4)C=C3)cc1` [TPP(4-Cl)4, Tetra-(4-chlorophenyl)-porphyrin] gave an EC50 (HIV-1 (strain LAV-1); [7]) of ~100 µM.

With `Cl[Si]1(Cl)n2c3c4ccccc4c2N=C2N=C(N=c4c5ccccc5c(n41)=NC1=NC(=N3)c3ccccc31)c1ccccc12` [SiPHTHCl2, Silicon phthalocyanine dichloride] the EC50 (HIV-1 (strain LAV-1); [14]) was ≤ 1 µM.

With `Cc1ccc(-c2c3nc(c(-c4ccc(C)cc4)c4ccc([nH]4)c(-c4ccc(C)cc4)c4nc(c(-c5ccc(C)cc5)c5ccc2[nH]5)C=C4)C=C3)cc1` [TPP(4-Me)4, Tetra-(4-methylphenyl)-porphyrin] the EC50 [1] was > 100 µM, the EC50 [2, 9] was > 10 µM and the EC50 [2, 10] was 1 µM. The EC50 [3, 11] was 3.95 µM and the EC50 [3, 12] was > 10 µM.

— patent publication US5281616A, “Porphyrin and phthalocyanine antiviral compositions” (priority 1992, dated 1994)
